Experimental data as given in paper PMC7180939, “Antiplasmodial Activity of p-Substituted Benzyl Thiazinoquinone Derivatives and Their Potential against Parasitic Infections” (Molecules, 2020).
Like-named read-outs stand apart in the source and are kept apart here.

Key:
[1] = system: chloroquine-resistant (W2) strain of P. falciparum; experiment: P. falciparum drug susceptibility assay (pLDH), W2 strain; format: cell-based; settings: Plasmodium falciparum, read-out: W2 IC50
Procedure: (§1) All reagents were from Sigma Aldrich, Milan, Italy unless indicated otherwise. As reported in the literature, the chloroquine-sensitive (D10) and chloroquine-resistant (W2) strains of P. falciparum were maintained in vitro at 5% hematocrit medium (constituted of human type Apositive red blood cells) in RPMI 1640 (EuroClone, Celbio, Italy) with the addition of 1% AlbuMax (Invitrogen, Milan, Italy), 0.01% hypoxanthine, […], and […]. The resulting cultures were incubated at 37 °C in a mixture of standard gas with the following composition: 1% O2, 5% CO2, and 94% N2. […] Drugs were placed in 96 well flat-bottom microplates and a series of dilutions performed. Asynchronous cultures (parasitemia of 1–1.5%; 1% final hematocrit) were aliquoted into the plates and incubated for 72 h at 37 °C. The cultures were washed with PBS before the chemosensitivity assay while the parasite growth was determined spectrophotometrically (OD650) by measuring the parasite lactate dehydrogenase (pLDH) activity. These measurements were made according to the modified version of Makler’s method both in control and drug-tested cultures. Antiplasmodial activity is expressed as 50% inhibitory concentrations (IC50), which means the dose of compounds necessary to inhibit cell growth by 50%. Each IC50 value is the mean standard deviation of at least three separate experiments performed in duplicate.

[2] = system: chloroquine-sensitive (D10) strain of P. falciparum; experiment: P. falciparum drug susceptibility assay (pLDH), D10 strain; format: cell-based; settings: Plasmodium falciparum, read-out: D10 IC50
Procedure: as §1

[3] = system: human microvascular endothelial cells (HMEC-1); experiment: Cytotoxicity assay on HMEC-1 cell line; format: cell-based; settings: cytotoxicity on HMEC-1 cell line
P. falciparum = system: P. falciparum; set-up: method as in PMID 30640072; settings: D10 and W2 strains, earlier work; cited from earlier work
[4] = system: embryonic murine fibroblasts (NIH-3T3 cell line); set-up: method as in PMID 31718145; settings: cytotoxicity on NIH-3T3 cell line; cited from earlier work
S. mansoni = system: S. mansoni; set-up: method as in PMID 31718145; settings: schistosomula, adult worm pairs, juvenile parasites, eggs; cited from earlier work
[5] = set-up: method as in PMID 31718145; settings: cited from earlier work
[6] = CQ-resistant W2 strain, pLDH assay, 72 h, mean ± SD of three experiments in duplicate
[7] = CQ-sensitive D10 strain, pLDH assay, 72 h, mean ± SD of three experiments in duplicate

IC50 [1, 6]	IC50 [2, 7]	Compound	IC50 [3]	further results
–	–	CCN(CC)CCCC(C)Nc1ccnc2cc(Cl)ccc12 (stereo not shown) [CQ, chloroquine, reference compound]	–	IC50 ([1]; W2, 72 h): 540 nM; IC50 ([2]; D10, 72 h): 40 nM
–	–	CC[C@@]1(O)C(=O)OCc2c1cc1n(c2=O)Cc2cc3ccccc3nc2-1 [Camptothecin, reference compound]	18 nM	–
700 ± 220 nM	600 ± 210 nM	COC1=C(Cc2ccccc2)C(=O)C2=C(NCCS2(=O)=O)C1=O [Compound 22]	17600 ± 1400 nM	antiplasmodial activity (in words) (P. falciparum): active in the range of low-micromolar concentrations; IC50 [4]: 88600 ± 7700 nM
–	–	COC1=C(Cc2ccccc2)C(=O)C=CC1=O [Compound 23]	–	antiplasmodial activity (in words) (P. falciparum): absence of activity; activity against S. mansoni (in words) (S. mansoni): inactive
1900 ± 1050 nM	1630 ± 350 nM	COC1=C(Cc2ccc(Cl)cc2)C(=O)C2=C(NCCS2(=O)=O)C1=O [Compound 24]	8510 ± 760 nM	–
5020 ± 1810 nM	5060 ± 1680 nM	COC1=C(Cc2ccc(C(F)(F)F)cc2)C(=O)C2=C(NCCS2(=O)=O)C1=O [Compound 25]	20400 ± 1600 nM	–
1220 ± 240 nM	1210 ± 200 nM	COC1=C(Cc2ccc(OC)cc2)C(=O)C2=C(NCCS2(=O)=O)C1=O [Compound 26]	17900 ± 1100 nM	cLogD [5]: 0.33; IC50 [4]: > 100000 nM
810 ± 190 nM	1120 ± 400 nM	COC1=C(Cc2ccc(OC(F)(F)F)cc2)C(=O)C2=C(NCCS2(=O)=O)C1=O [Compound 27]	3590 ± 720 nM	cLogD [5]: 1.37
